Assays:
FADS1 = molecular target: T1, FADS1 (Mus musculus, UniProt Q920L1); assay: In vivo FADS1 activity measurement using blood plasma (13C5-DGLA to 13C5-AA conversion); details: DIO mice, 24 hours after dosing
T1 construct: Liver from ^13C5-DGLA dosed DIO mice was collected for pharmacodynamic (PD) analysis; from tissue; host or cells: living DIO C57Bl/6 mice; 13C5-DGLA to 13C5-AA conversion read in liver (A4) or blood plasma (A5)
T1 sequence (Q920L1 1-447): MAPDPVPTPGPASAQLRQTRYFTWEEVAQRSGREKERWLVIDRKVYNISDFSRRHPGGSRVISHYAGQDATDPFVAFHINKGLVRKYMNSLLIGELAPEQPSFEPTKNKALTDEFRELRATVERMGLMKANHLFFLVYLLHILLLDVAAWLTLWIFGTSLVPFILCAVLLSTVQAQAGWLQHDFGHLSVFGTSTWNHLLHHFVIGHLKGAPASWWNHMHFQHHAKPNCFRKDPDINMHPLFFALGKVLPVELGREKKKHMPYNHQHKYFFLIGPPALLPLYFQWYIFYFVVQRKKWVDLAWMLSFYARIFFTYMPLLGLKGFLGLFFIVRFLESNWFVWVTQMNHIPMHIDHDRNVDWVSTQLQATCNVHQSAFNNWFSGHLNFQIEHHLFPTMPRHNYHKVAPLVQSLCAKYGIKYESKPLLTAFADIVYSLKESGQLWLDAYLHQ
Description: FADS1 activity in the presence of Compounds B-E was also measured using blood plasma (in addition to using the liver). The above procedures were perforned to measure the in vivo activity of FADS1 using the liver. The following general procedures were used to measure FADS1 activity using blood plasma. Diet-induced obese (DIO) mice that were on 12 weeks of high fat diet were used to determine the pharmacokinetic (PK) and pharmacodynamic (PD) properties of test compounds. To determine the target coverage at 24 hours after dosing with a test compound (e.g., Compounds B-E, shown below), mice were IP dosed with 0.1 ml solution of ^13C5-DGLA (2 mM in 18.42 mM Na2CO3 buffer). Necropsy were performed at 30 minutes post ^13C5-DGLA dosing. EDTA Plasma was collected for PK and PD analysis.
For PD analysis, 50 μl of plasma or standards (pooled untreated mouse plasma with ^13C5-DGLA and ^13C5-AA added at concentration of 4.57 nM to 10 uM) were mixed with 10 μl of 90% methanol and 10 μl of 50 μg/mL of ALA-D14 as an internal standard (100 μM alpha-linolenic acid-d14 (ALA-d14, Cayman Chemical)) in a 96 well plate. 490 μl of chloroform:methanol (2:1) were added to each well. Plates were plated on a shaker for 5 min prior to adding 66.5 μl water. The plates were shaken for another 5 minutes, followed by centrifugation at 2000 RPM for 5 minutes. The bottom organic layer was transferred to a clean 96 well plate. 333 ul of chloroform:methanol (2:1) were added to the to the remaining liquid phase in the original plate. After 5 min of shaking, the plate was centrifuged at 2000 RPM for 5 minutes. The bottom layer was collected and combined with the first bottom layer. The combined layers were evaporated to dryness under a constant stream of nitrogen gas. After the plate has been dried, 100 μl of 2N NaOH was added to the mixture for subsequent saponification at 65° C. for 1 hour. The samples were then cooled to room temperature and the mixture was then acidified with 50 μl of formic acid followed by two consecutive chloroform:methanol (2:1) extractions. 500 μl of Chloroform:methanol (2:1) was added and the mixture thoroughly mixed by shaking. The plate was then centrifuged at 2,000 rpm for 5 min. The bottom chloroform phase was transferred to a new 2 mL 96 well plate and the remaining aqueous layer was extracted with another 250 μl of chloroform:methanol (2:1). The organic extracts were combined, and the solvent was evaporated to dryness by placing the plate under nitrogen. Extracts were then dissolved in 200 μl of acetonitrile/methanol (1:1). The plate was placed on a shaker for 30 minutes to ensure thorough mixing and dissolution of the extracted fatty acids. The plate was then centrifuged at 2000 RPM for 5 minutes. 80 μl of the samples were transferred to a new 96 well polypropylene plate for analysis on a LC-MS/MS for the following analytes: ^13C5-DGLA, ^13C5-AA, with ALA-d14 as the internal standard. Briefly describing the LC-MS/MS method: 20 μl of sample was injected onto a Poroshell 120 EC-C18 3.0×50 mm, 1.9 μm id column. Mobile phases were 80% acetonitrile containing 5 mM ammonium acetate for mobile phase A and 99.5% acetonitrile containing 5 mM ammonium acetate for mobile phase B. The LC gradient was a 3 min long method at a flow rate of 0.4 mL/minute consisting of 45% B at 0 to 0.5 min, followed by a 45% B to 100% B from 0.5 to 2.0 min; the system was then maintained at 100% B from 2.0 min to 2.5 min and returned to 45% B at 2.6 min and maintained until end of the method. The analyte peak areas were quantified by using the SCIEX Analyst software. To determine the degree of FADS1 inhibition, the in vivo FADS1 activity, POC, percent of inhibition, and in vivo IC50 values are calculated as described above for liver FADS1 activity measurement.

[1] = Liver histology assessment (H&E, Oil-red-O); assay type: in vivo, mouse; details: WT DIO mice, 10 mg/kg, 24 days, compared to WT vehicle
[2] = mouse, single oral dose 10 mg/kg
[3] = mouse, single oral dose 30 mg/kg

Plasma Avg % Conversion (FADS1; single oral dose 3 mg/kg) [%] | Plasma Avg % Conversion (FADS1; single oral dose 10 mg/kg) [%] | Plasma Avg % Conversion (FADS1; single oral dose 30 mg/kg) [%] | inhibition at 3 mg/kg (FADS1; mouse, single oral dose 3 mg/kg) [%] | inhibition at 10 mg/kg (FADS1; [2]) [%] | inhibition at 30 mg/kg (FADS1; [3]) [%] | Plasma Avg % Conversion (FADS1; single oral dose 50 mg/kg) [%] | inhibition at 50 mg/kg (FADS1; mouse, single oral dose 50 mg/kg) [%] | liver lipid content (Oil-red-O staining) [1] | SMILES
10.1 | 4.3 | 1.7 | 83.3 | 92.8 | 97.1 | – | – | – | N#Cc1ccn2c(=O)c(-c3cnn(CC(F)(F)C(F)(F)F)c3)c(C(F)(F)F)nc2c1 [Compound C]
– | 2.9 | 2.2 | – | 95.2 | 96.3 | 1.9 | 96.9 | – | COc1ccn2c(=O)c(-c3cnn(CC(F)(F)C(F)(F)F)c3)c(C(F)(F)F)nc2n1 [Compound B]
– | – | – | – | – | – | – | – | reduced lipid content | COc1ccn2c(=O)c(-c3cnn(CC(F)(F)C(F)(F)F)c3)c(C(F)(F)F)nc2c1 [Compound A, 8-methoxy-3-(1-(2,2,3,3,3-pentafluoropropyl)-1H-pyrazol-4-yl)-2-(trifluoromethyl)-4H-pyrido[1,2-a]pyrimidin-4-one]
